Experimental data: patent US5380732A, “Pesticidal compounds” (priority 1986, dated 1995)

How the values were obtained:
Type in all cases: in vivo
Myzus persicae = assay: adult Myzus on chinese cabbage leaf disc sprayed (Example C); conditions: 2 days, 25° C.
Method: (§1) The compounds of the invention were tested by dissolving them in acetone (5%) and then diluting in water/`Synperonic` (94.5%/0.5%) to give a water emulsion. ("Synperonic" is a R.T.M. of I.C.I. plc and is nonylphenol ethoxylate in aqueous solution to give 27%; available from B.D.H., Poole, Dorset, England). The solution was then used to treat the following insects.
10 adult Myzus were placed on a leaf disc of chinese cabbage. 24 hours later the disc was sprayed with the solution containing the compound. Mortality was assessed after 2 days at 25° C.

Sitophilus granarius = assay: adults on treated wheat, mortality after 6 days, Sitophilus (Example C); conditions: 25° C.
Method: as §1
(§2) 20 adult Sitophilus and Tribolium were added to 10 g wheat which had been previously treated with 2 ml of the solution containing the compound. Mortality was assessed after 6 days at 25° C.

Plutella xylostella [1] = assay: discs of chinese cabbage infested with second instar Plutella larvae sprayed (Example C); conditions: 2 days, 25° C.
Method: as §1
or Discs of chinese cabbage infested with c8 second instar Plutella larvae were sprayed with the solution containing the compound. Mortality was assessed after 2 days at 25° C.

Musca domestica = assay: spray onto 20 female Musca, mortality after 2 days (Example C); conditions: 25° C.
Method: as §1
20 female Musca were contained in a cardboard cylinder with gauze over either end. Solution containing the compound was sprayed onto the insects so enclosed and mortality assessed after 2 days at 25° C.

Plutella xylostella [2] = assay: fourth instar Plutella larvae sprayed and added to sprayed chinese cabbage leaf (Example C); conditions: 2 days, 25° C.
Method: as §1
7 Fourth instar Plutella larvae were sprayea with the solution containing the compound and added to a chinese cabbage leaf which had been similarly sprayed and left to dry. Mortality was assessed after 2 days at 25° C.

Tetranychus urticae = assay: leaf discs of infested french bean sprayed (Example C); conditions: 2 days, 25° C.
Method: as §1
Leaf discs of infested french bean were sprayed with the solution containing the compound. Mortality was assessed after 2 days at 25° C.

A. aegypti (larvae) = assay: track-spray of acetone-water solution, A. aegypti larvae (Example A); conditions: acetone-water (5:95)
Method: (§3) The compound of Example 1 was administered in acetone-water (5:95) by track-spray to a range of insect and acarine species, giving the following results.

M. domestica = assay: track-spray of acetone-water solution, M. domestica (Example A); conditions: acetone-water (5:95)
Method: as §3

C. quinquefasciatus = assay: track-spray of acetone-water solution, C. quinquefasciatus (Example A); conditions: acetone-water (5:95)
Method: as §3

S. granarius = assay: track-spray of acetone-water solution, S. granarius (Example A); conditions: acetone-water (5:95)
Method: as §3

T. castaneum = assay: track-spray of acetone-water solution, T. castaneum (Example A); conditions: acetone-water (5:95)
Method: as §3

Spodoptera littoralis [3] = assay: injection into fifth instar Spodoptera littoralis larvae (Example D); conditions: 5% solution in DMSO/acetone (50:50), 1.0 ul injected, 2 days, 25° C.
Method: The compounds of the invention were also tested by dissolving them in DMSO/acetone (50:50) to give a 5% solution, 1.0 ul of which was injected into fifth instar Spodoptera littoralis larvae. Mortality was assessed after 2 days at 25° C.

Tribolium castaneum = assay: adults on treated wheat, mortality after 6 days, Tribolium (Example C); conditions: at 1000 ppm, 25° C.
Method: as §1, §2

[4] = system: Diabrotica undecimpunctata; assay: 2nd instar larvae and their food sprayed on filter paper (Example C); conditions: at 1000 ppm; 2nd instar larvae, 2 days
Method: as §1
2nd instar larvae and their food were sprayed on filter paper with the solution containing the compound. Activity was assessed at 2 days.

Blatella germanica = assay: activity against Blatella germanica with piperonyl butoxide; conditions: at up to 10 μg per insect (+piperonyl butoxide)
Spodoptera littoralis [5] = assay: sprayed leaves infested with newly hatched Spodoptera larvae (Example C); conditions: at 200 ppm, +pip but, 3 days
Method: as §1
Uninfested leaves were sprayed with the test solution containing the compound (+pip but) and left to dry. These were then infested with 10 newly hatched larvae. Mortality was assessed after 3 days.

## CCC(C)NC(=O)C=C(C)C=CCCCCCCCOc1ncccc1Cl (stereo not shown) [Example 13]
Myzus persicae; at 200 ppm
  active (mortality): active

## CC(C)CNC(=O)/C=C/C=C/CCCCCCCOc1cc(C(F)(F)F)cc(C(F)(F)F)n1 [Example 19, (2E,4E) N-isobutyl 12-(4',6'-bistrifluoromethyl-2'-pyridyloxy) -dodeca-2,4-dienamide]
Sitophilus granarius
  active (mortality): active
Plutella xylostella [1]; at 200 ppm
  active (mortality): active
Musca domestica; at 200 ppm
  active (mortality): active

## CC(C=CCCCCCCCOc1cccc(Cl)n1)=CC(=O)NCC(C)C [Example 9]
Plutella xylostella [2]; at 200 ppm
  active (mortality): active
Musca domestica; at 1000 ppm
  active (mortality): active
Tetranychus urticae; at 200 ppm
  active (mortality): active

## CC(C=CCCCCCCCOc1ccc(Cl)cn1)=CC(=O)NCC(C)C [Example 18]
Plutella xylostella [2]; at 1000 ppm
  active (mortality): active
Musca domestica; at 1000 ppm
  active (mortality): active
Tetranychus urticae; at 1000 ppm
  active (mortality): active
Myzus persicae; at 1000 ppm
  active (mortality): active

## CC(C)CNC(=O)C=CC=CCCCCCCCOc1cccnc1Br [Example 28]
Tetranychus urticae; at 1000 ppm
  active (mortality): active

## C=C(C)CNC(=O)C=CC=CCCCCCCCOc1cc(C(F)(F)F)cc(C(F)(F)F)n1 [Example 21]
Sitophilus granarius
  active (mortality): active
Musca domestica; at 200 ppm
  active (mortality): active
Tetranychus urticae; at 1000 ppm
  active (mortality): active

## CC(C)C(C)NC(=O)C=CC=CCCCCCCCOc1cncc(Cl)c1 (stereo not shown) [Example 24]
Plutella xylostella [2]; at 1000 ppm
  active (mortality): active

## CC(C)CNC(=O)C=CC=CCCCCCCCOc1cccc(Cl)n1 [Example 1, N-Isobutyl 12-(6'-chloro-2'-pyridyloxy)dodeca-2,4-dienamide]
Plutella xylostella [2]; at 1000 ppm
  active (mortality): active
A. aegypti (larvae)
  LD50: > 1000 ppm
M. domestica
  LD50: about 200 ppm
Musca domestica; at 200 ppm
  active (mortality): active
Tetranychus urticae; at 1000 ppm
  active (mortality): active
C. quinquefasciatus
  LD50: > 1000 ppm
Myzus persicae; at 200 ppm
  active (mortality): active
S. granarius
  LD50: > 1000 ppm
T. castaneum
  LD50: > 1000 ppm

## CC(C=CCCCCCCCOc1cc(C(F)(F)F)cc(Cl)n1)=CC(=O)NCC(C)C [Example 11]
Plutella xylostella [2]; at 1000 ppm
  active (mortality): active
Musca domestica; at 1000 ppm
  active (mortality): active
Tetranychus urticae; at 1000 ppm
  active (mortality): active
Spodoptera littoralis [3]
  active (mortality): active

## CC(C)CNC(=O)C=CC=CCCCCCCCOc1ncccc1C(F)(F)F [Example 7]
Plutella xylostella [2]; at 1000 ppm
  active (mortality): active
Spodoptera littoralis [3]
  active (mortality): active

## (2E,4E) N-Isobutyl 12-(4'-chloro-2'-pyrimidyloxy)-dodeca-2,4-dienamide and (2E,4E) N-Isobutyl 12-(2'-chloro-4-pyrimidyloxy)-dodeca-2,4-dienamide [Example 32]
Tetranychus urticae; at 1000 ppm
  active (mortality): active

## (2E,4E) N-1-Methylpropyl 12-(4'-chloro-2-pyrimidyloxy) dodeca-2,4-dienamide and (2E,4E) N-1-Methylpropyl 12-(2-chloro-4'-pyrimidyloxy) -dodeca-2,4-dienamide [Example 34]
Tetranychus urticae; at 1000 ppm
  active (mortality): active

## CC(C)CNC(=O)/C=C/C=C/CCCCCCCOc1cc(C(F)(F)F)nc(C(F)(F)F)c1 [Example 35, (2E,4E) N-Isobutyl 12-(2',6'-bistrifluoromethyl-4'-pyridyloxy)-dodeca-2,4-dienamide]
Sitophilus granarius
  active (mortality): active
Plutella xylostella [1]; at 200 ppm
  active (mortality): active
Musca domestica; at 1000 ppm
  active (mortality): active
Spodoptera littoralis [3]
  active (mortality): active

## CCC(C)NC(=O)C=CC=CCCCCCCCOc1cccc(C(F)(F)F)n1 (stereo not shown) [Example 4]
Musca domestica; at 200 ppm
  active (mortality): active
Tetranychus urticae; at 1000 ppm
  active (mortality): active

## CC(C)CNC(=O)/C=C/C=C/CCCCCCCOc1ccncc1 [Example 31, (2E,4E) N-Isobutyl 12-(4'-pyridyloxy)-dodeca-2,4-dienamide]
Sitophilus granarius
  active (mortality): active
Myzus persicae; at 1000 ppm
  active (mortality): active

## CC(C)CNC(=O)C=CC=CCCCCCCCOc1ccc(Cl)cn1 [Example 17]
Plutella xylostella [2]; at 200 ppm
  active (mortality): active
Tribolium castaneum
  active (mortality): active
Musca domestica; at 200 ppm
  active (mortality): active
Tetranychus urticae; at 1000 ppm
  active (mortality): active

## CC(C)CNC(=O)C=CC=CCCCCCCCOc1ccccn1 [Example 15]
Myzus persicae; at 200 ppm
  active (mortality): active

## CC(C)CNC(=O)C=CC=CCCCCCCCOc1cncc(Cl)c1 [Example 25]
Tetranychus urticae; at 200 ppm
  active (mortality): active

## CC(/C=C/CCCCCCCOc1ncc(C(F)(F)F)cc1C(F)(F)F)=C(/F)C(=O)NCC(C)C [Example 38, (2Z,4E)N-Isobutyl 2-fluoro-3-methyl-12-(3,5-bistrifluoromethyl-2-pyridyloxy)dodeca-2,4-dienamide]
Plutella xylostella [2]; at 40 ppm
  active (mortality): active
Musca domestica; at 1000 ppm
  active (mortality): active
Tetranychus urticae; at 200 ppm
  active (mortality): active
[4]
  active: active
Blatella germanica
  active: active
Spodoptera littoralis [5]
  active (mortality): active

## CC(C)CNC(=O)C=CC=CCCCCCCCOc1ncccc1Cl [Example 12]
Myzus persicae; at 1000 ppm
  active (mortality): active

## CC(C)CNC(=O)/C=C/C=C/CCCCCCCOc1cccc(C(F)(F)F)n1 [Example 3, (2E,4E) N-isobutyl 12-(6trifluoromethyl-2'-pyridyloxy) dodeca-2,4-dienamide]
Musca domestica; at 200 ppm
  active (mortality): active
Tetranychus urticae; at 1000 ppm
  active (mortality): active

## CC(C=CCCCCCCCOc1cccnc1Br)=CC(=O)NCC(C)C [Example 29]
Tetranychus urticae; at 1000 ppm
  active (mortality): active
Spodoptera littoralis [3]
  active (mortality): active

## CCC(C)NC(=O)C=CC=CCCCCCCCOc1ccccn1 (stereo not shown) [Example 16]
Musca domestica; at 1000 ppm
  active (mortality): active
Myzus persicae; at 200 ppm
  active (mortality): active

## CC(C)CNC(=O)C=CC=CCCCCCCCOc1cc(C(F)(F)F)cc(Cl)n1 [Example 10]
Sitophilus granarius
  active (mortality): active
Musca domestica; at 1000 ppm
  active (mortality): active

## CC(C=CCCCCCCCOc1cccc(C(F)(F)F)n1)=CC(=O)NCC(C)C [Example 8]
Plutella xylostella [2]; at 200 ppm
  active (mortality): active
Musca domestica; at 1000 ppm
  active (mortality): active
Tetranychus urticae; at 200 ppm
  active (mortality): active
Spodoptera littoralis [3]
  active (mortality): active

## CC(C=CCCCCCCCOc1cc(C(F)(F)F)cc(C(F)(F)F)n1)=CC(=O)NCC(C)C [Example 23]
Musca domestica; at 1000 ppm
  active (mortality): active
Tetranychus urticae; at 1000 ppm
  active (mortality): active

## (2E/Z,4E) N-Isobutyl 3-methyl-12-(4-chloro-2'-pyrimidyloxy) -dodeca-2,4-dienamide and (2E/Z,4E) N-Isobutyl 3-methyl-12-(2-chloro-4'-pyrimidyloxy) -dodeca-2,4-dienamide [Example 33]
Myzus persicae; at 1000 ppm
  active (mortality): active

## CC(/C=C/CCCCCCCOc1ncc(C(F)(F)F)cc1Cl)=C(/F)C(=O)NCC(C)C [Example 39, (2Z,4E)N-Isobutyl 2-fluoro-3-methyl-12-(3-chloro-5-trifluoromethyl-2-pyridyloxy) dodeca-2,4-dienamide]
Blatella germanica
  active: active

## CC(C)CNC(=O)C=CC=CCCCCCOc1cccc(Cl)n1 [Example 14]
Myzus persicae; at 1000 ppm
  active (mortality): active

## CC(C)CNC(=O)C=CC=CCCCCCCCOc1nc(C(F)(F)F)ccc1C(F)(F)F [Example 20]
Plutella xylostella [1]; at 200 ppm
  active (mortality): active

## CC1(CNC(=O)/C=C/C=C/CCCCCCCOc2cc(C(F)(F)F)cc(C(F)(F)F)n2)OCCO1 [Example 22, (2E,4E) N-(2-methyl-1,3-dioxalan-2-yl)-methyl 12-(4',6'-bistrifluoromethyl-2-pyridyloxy)-dodeca-2,4-dienamide]
Sitophilus granarius
  active (mortality): active
Musca domestica; at 200 ppm
  active (mortality): active

## CC(/C=C/CCCCCCOCc1cccc(Cl)n1)=C\C(=O)NCC(C)C [Example 36, (2E,4E) N-Isobutyl 11-(6'-chloro-2'-pyridylmethoxy) -3-methylundeca-2,4-dienamide]
Plutella xylostella [1]; at 1000 ppm
  active (mortality): active
Tetranychus urticae; at 1000 ppm
  active (mortality): active

## CC(C=CCCCCCCCOc1cccnc1Cl)=CC(=O)NC(C)C(C)C (stereo not shown) [Example 27]
Tetranychus urticae; at 1000 ppm
  active (mortality): active

## CCC(C)NC(=O)/C=C/C=C/CCCCCCCOc1ccncc1 (stereo not shown) [Example 30, (2E,4E) -N-(1-methylpropyl) 12-(4'-pyridyloxy)dodeca-2,4-dienamide]
Myzus persicae; at 1000 ppm
  active (mortality): active

## CC(C)CNC(=O)C=CC=CCCCCCCCOc1ccc(C(F)(F)F)cn1 [Example 6]
Musca domestica; at 1000 ppm
  active (mortality): active
